We go through 10 molecules from patent US20220289691A1, “5-AMINO-SUBSTITUTED PYRAZOLES AND TRIAZOLES AS PEST CONTROL AGENTS” (Bayer Aktiengesellschaft, priority 2019, published 2022).

Type in all cases: in vivo
Assay [1] deals with Diabrotica balteata. The experiment in a line: Diabrotica balteata spray test. To be noted: 168 h, beetle larvae on wheat, after 7 days, read-out: efficacy (wheat plant growth); for pest or weed control at 100 g/ha: 100 g/ha (=32 μg/cavity); for pest or weed control at 500 g/ha: 500 g/ha (=160 μg/cavity). An outline of the steps: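 Germinated wheat seedlings in agar multiwell plates were sprayed with compound in acetone/DMF with emulsifier-containing water, then infested with 10-20 Diabrotica balteata larvae. After 7 days, efficacy (%) scored by plant growth: 100% equals untreated, uninfested control, 0% no plants grown.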

In assay [2] the test system is Spodoptera frugiperda. Nature of the assay: Spodoptera frugiperda spray test. The following applies: foliar, 168 h, maize leaf discs, after 7 days, read-out: efficacy (caterpillars killed). An outline of the steps: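 Compound was dissolved in acetone/dimethylformamide and diluted with water containing 1000 ppm alkylaryl polyglycol ether emulsifier to test concentrations. Maize leaf discs were sprayed, dried and infested with fall armyworm caterpillars. Efficacy (% caterpillars killed) was scored after 7 days.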

Assay [3] has as its system Tetranychus urticae. The experiment in a line: Tetranychus urticae spray test, OP-resistant. To be noted: 100 g/ha. The protocol: Tetranychus urticae—Spray Test, OP-Resistant Solvent: 78.0 parts by weight of acetone • • 1.5 parts by weight of dimethylformamide Emulsifier: alkylaryl polyglycol ether
(§1) To produce a suitable active compound formulation, 1 part by weight of active compound is dissolved using the stated parts by weight of solvent and made up with water containing an emulsifier concentration of 1000 ppm until the desired concentration is attained. To produce further test concentrations, the formulation is diluted with emulsifier-containing water.
Discs of bean leaves (Phaseolus vulgaris) infested with all stages of the greenhouse red spider mite (Tetranychus urticae) are sprayed with an active compound formulation of the desired concentration.
After 6 days, the efficacy in % is determined. 100% means that all the spider mites have been killed; 0% means that no spider mites have been killed.

The subject of assay [4] is Ctenocephalides felis. Nature of the assay: Ctenocephalides felis oral test. To be noted: 48 h, 100 ppm in citrated cattle blood, adult cat fleas, after 2 days, read-out: efficacy (kill). The protocol:
Ctenocephalides felis—Oral Test
(§2) Solvent: Dimethyl Sulfoxide
To produce a suitable active compound formulation, 10 mg of active compound are mixed with 0.5 ml of dimethyl sulfoxide. Dilution with citrated cattle blood gives the desired concentration.
About 20 unfed adult cat fleas (Ctenocephalides felis) are placed into a chamber which is closed at the top and bottom with gauze. A metal cylinder whose bottom end is closed with parafilm is placed onto the chamber. The cylinder contains the blood/active compound formulation, which can be imbibed by the fleas through the parafilm membrane.
After 2 days, the kill in % is determined. 100% means that all of the fleas have been killed; 0% means that none of the fleas have been killed.

Assay [5] has as its system Musca domestica. The experiment in a line: Musca domestica test. To be noted: 100 ppm, adult houseflies, after 2 days. As for the experimental part:
as §2
To produce a suitable active compound formulation, 10 mg of active compound are mixed with 0.5 ml of dimethyl sulfoxide, and the concentrate is diluted with water to the desired concentration.
Vessels containing a sponge treated with sugar solution and the desired concentration of active compound formulation are populated with 10 adult houseflies (Musca domestica).
After 2 days, the kill in % is determined. 100% means that all of the flies have been killed; 0% means that none of the flies have been killed.

Assay [6] relates to Phaedon cochleariae. The experiment in a line: Phaedon cochleariae spray test. The following applies: foliar, 168 h, Chinese cabbage leaf discs, after 7 days, read-out: efficacy (beetle larvae killed). As for the experimental part:
Phaedon cochleariae—Spray Test Solvent: 78.0 parts by weight of acetone • • 1.5 parts by weight of dimethylformamide Emulsifier: alkylaryl polyglycol ether
as §1
Discs of Chinese cabbage leaves (Brassica pekinensis) are sprayed with an active compound formulation of the desired concentration and, after drying, populated with larvae of the mustard beetle (Phaedon cochleariae).
After 7 days, the efficacy in % is determined. 100% means that all the beetle larvae have been killed; 0% means that no beetle larvae have been killed.

In assay [7] the test system is Boophilus microplus. Nature of the assay: Boophilus microplus injection test. To be noted: 20 μg/animal, injection into engorged adult female cattle ticks, after 7 days. The protocol: Boophilus microplus—Injection Test
as §2
To produce a suitable active compound formulation, 10 mg of active compound are mixed with 0.5 ml of solvent and the concentrate is diluted to the desired concentration with solvent.
1 μl of the active compound solution is injected into the abdomen of 5 engorged adult female cattle ticks (Boophilus microplus). The animals are transferred into dishes and kept in a climate-controlled room.
Efficacy is assessed after 7 days by laying of fertile eggs. Eggs which are not visibly fertile are stored in a climate-controlled cabinet until the larvae hatch after about 42 days. An efficacy of 100% means that none of the ticks has laid any fertile eggs; 0% means that all the eggs are fertile.

In assay [8] the test system is Myzus persicae. The experiment in a line: Myzus persicae oral test. The following applies: 4 ppm, after 5 days. As for the experimental part: Myzus persicae—Oral Test Solvent: 100 parts by weight of acetone
To produce a suitable active compound formulation, 1 part by weight of active compound is dissolved using the specified parts by weight of solvent and made up with water until the desired concentration is attained.
50 μl of the active compound formulation are transferred into microtitre plates and made up to a final volume of 200 μl with 150 μl of IPL41 insect medium (33%+15% sugar). Subsequently, the plates are sealed with parafilm, which a mixed population of green peach aphids (Myzus persicae) within a second microtitre plate is able to puncture and imbibe the solution through.
After 5 days, the efficacy in % is determined. 100% means that all the aphids have been killed; 0% means that no aphids have been killed.

The subject of assay [9] is Ctenocephalides felis. The experiment in a line: Ctenocephalides felis in vitro contact test with adult cat fleas. The following applies: 5 μg/cm^2 (=500 g of ai/ha), after 48 h, read-out: efficacy (fleas dead or moribund). As for the experimental part:
Ctenocephalides felis—In Vitro Contact Tests with Adult Cat Fleas
For the coating of the test tubes, 9 mg of active compound are first dissolved in 1 ml of acetone p.a. and then diluted to the desired concentration with acetone p.a. 250 μl of the solution are distributed homogeneously on the inner walls and the base of a 25 ml glass tube by turning and rocking on an orbital shaker (rocking rotation at 30 rpm for 2 h). With 900 ppm of active compound solution and internal surface area 44.7 cm^2, given homogeneous distribution, an area-based dose of 5 μg/cm^2 is achieved.
After the solvent has evaporated off, the tubes are populated with 5-10 adult cat fleas (Ctenocephalides felis), sealed with a perforated plastic lid and incubated in a horizontal position at room temperature and ambient humidity. After 48 h, efficacy is determined. To this end, the tubes are stood upright and the fleas are knocked to the base of the tube. Fleas which remain motionless at the base or move in an uncoordinated manner are considered to be dead or moribund.
100% efficacy means that all the fleas were dead or moribund. 0% efficacy means that no fleas were harmed.

Assay [10] relates to Nezara viridula. Nature of the assay: Nezara viridula spray test. To be noted: 500 g/ha, larvae on barley plants, after 4 days. As for the experimental part: Nezara viridula—Spray Test Solvent: 78.0 parts by weight of acetone • • 1.5 parts by weight of dimethylformamide Emulsifier: alkylaryl polyglycol ether
as §1
Barley plants (Hordeum vulgare) are sprayed with an active compound formulation of the desired concentration and are infected with larvae of the Southern green shield bug (Nezara viridula).
After 4 days, the efficacy in % is determined. 100% means that all of the shield bugs have been killed; 0% means that none of the shield bugs have been killed.

Regarding `CCOCCNc1nc(-c2ccc(C=NNC(=S)Nc3ccccc3C(C)C)cc2)nn1-c1ccc(OC(F)(F)F)cc1` [Compound I-060], in assay [1], the pest or weed control at 100 g/ha was found to be 100% and the pest or weed control at 500 g/ha amounted to 100%. Besides, the pest or weed control at 100 g/ha in assay [2] is 100%. The “efficacy (spider mites killed)” value in [3] (bean leaf discs, all stages, after 6 days) is 90%.
Regarding `CCO[C@@H]1[C@@H](OC)[C@H](C)O[C@@H](OC(=O)Nc2ccc(-c3nc(NC(=O)C4CC4)n(-c4ccc(OC(F)(F)C(F)(F)F)cc4)n3)cc2)[C@@H]1OC` [Compound I-002], the pest or weed control at 100 ppm in [4] came out at 100%. In addition, the “efficacy (kill)” value in assay [5] is 90%. In addition, the pest or weed control at 100 g/ha in assay [6] amounted to 83%; in [2], 100%. Moreover, the pest or weed control at 500 g/ha in [6] and in assay [2] was 100% throughout.
Regarding `CCO[C@@H]1[C@@H](OC)[C@H](C)O[C@@H](OC(=O)Nc2ccc(-c3nc(NC(=O)CC)n(-c4ccc(OC(F)(F)F)cc4)n3)cc2)[C@@H]1OC` [Compound I-007], the “efficacy (laying of fertile eggs)” value in assay [7] stood at 100%. Moreover, the pest or weed control at 100 ppm in [4] came out at 90%. In addition, the pest or weed control at 100 g/ha in [6] turned out to be 100%. Further, the pest or weed control at 500 g/ha in assay [6] and in assay [2] was 100% throughout.
On to `CCO[C@@H]1[C@@H](OC)[C@H](C)O[C@@H](OC(=O)Nc2ccc(-c3nc(NC(C)=O)n(-c4ccc(OC(F)(F)C(F)(F)F)cc4)n3)cc2)[C@@H]1OC` [Compound I-006], for which the pest or weed control at 100 ppm in assay [4] was 95%. Also, the “efficacy (kill)” value in [5] came out at 80%. Besides, in assay [6], the pest or weed control at 100 g/ha amounted to 100% and the pest or weed control at 500 g/ha was 100%. Besides, in assay [2], the pest or weed control at 100 g/ha was determined as 100% and the pest or weed control at 500 g/ha worked out at 100%. For the same molecule, the “efficacy (spider mites killed)” value in [3] (foliar, 144 h) came to 100%.
Take `CCO[C@@H]1[C@@H](OC)[C@H](C)O[C@@H](OC(=O)Nc2ccc(-c3nc(NC(=O)CC)n(-c4ccc(OC(F)(F)C(F)(F)F)cc4)n3)cc2)[C@@H]1OC` [Compound I-005]: the “efficacy (laying of fertile eggs)” value in assay [7] was determined as 90%. In addition, the pest or weed control at 100 ppm in assay [4] was determined as 100%. Further, the “efficacy (kill)” value in assay [5] is listed as 80%. In addition, the pest or weed control at 100 g/ha in [6] and in assay [2] was 100% in each case. The pest or weed control at 500 g/ha in [6] and in assay [2] was 100% in each case.
With `CCC(=O)Nc1nc(-c2ccc(NC(=O)O[C@@H]3O[C@@H](C)[C@H](OC)[C@@H](OC)[C@H]3OC)cc2)nn1-c1ccc(OC(F)(F)C(F)(F)F)cc1` [Compound I-003], the “efficacy (laying of fertile eggs)” value in assay [7] came to 100%. Besides, in [4], the pest or weed control at 100 ppm was 100%. Also, in assay [6], the pest or weed control at 100 g/ha was found to be 100% and the pest or weed control at 500 g/ha turned out to be 100%. In addition, in [2], the pest or weed control at 100 g/ha is 100% and the pest or weed control at 500 g/ha is 100%.
Consider `CCO[C@@H]1[C@@H](OC)[C@H](C)O[C@@H](OC(=O)Nc2ccc(-c3nc(NC(C)=O)n(-c4ccc(OC(F)(F)F)cc4)n3)cc2)[C@@H]1OC` [Compound I-001, [(2S,3R,4R,5S,6S)-4-ethoxy-3,5-dimethoxy-6-methyl-tetrahydropyran-2-yl]N-[4-[5-acetamido-1-[4-(trifluoromethoxy)phenyl]-1,2,4-triazol-3-yl]phenyl]carbamate], for which the pest or weed control at 500 g/ha in [6] was found to be 100%. For the same molecule, in [2], the pest or weed control at 100 g/ha is 100% and the pest or weed control at 500 g/ha was found to be 100%. Moreover, the “efficacy (spider mites killed)” value in assay [3] (foliar, 144 h) came to 90%.
Regarding `CO[C@@H]1[C@@H](OC)[C@H](C)O[C@@H](OC(=O)Nc2ccc(-c3nc(NC(C)=O)n(-c4ccc(OC(F)(F)C(F)(F)F)cc4)n3)cc2)[C@@H]1OC` [Compound I-008], the pest or weed control at 100 ppm in [4] stood at 100%. The “efficacy (kill)” value in [5] is listed as 80%. In addition, in assay [6], the pest or weed control at 100 g/ha was found to be 100% and the pest or weed control at 500 g/ha is 100%. Further, in [2], the pest or weed control at 100 g/ha is 100% and the pest or weed control at 500 g/ha worked out at 100%.
For `CC(C)c1ccccc1NC(=S)NN=Cc1ccc(-c2nc(NC3CSC3)n(-c3ccc(OC(F)(F)F)cc3)n2)cc1` [Compound I-057], in assay [1], the pest or weed control at 100 g/ha amounted to 100% and the pest or weed control at 500 g/ha worked out at 100%. In addition, the “efficacy (aphids killed)” value in assay [8] is on record as 90%. Besides, in [2], the pest or weed control at 100 g/ha is 100%.
As for `CNc1nc(-c2ccc(C=NNC(=S)Nc3ccccc3C(C)C)cc2)nn1-c1ccc(OC(F)(F)F)cc1` [Compound I-018, 1-(2-isopropylphenyl)-3-[[4-[5-(methylamino)-1-[4-(trifluoromethoxy)phenyl]-1,2,4-triazol-3-yl]phenyl]methyleneamino]thiourea], in assay [9], the pest or weed control at 5 µg/cm2 came out at 80%. In addition, in assay [4], the pest or weed control at 100 ppm came to 95%. Moreover, the pest or weed control at 125 g/ha in [1] (125 g/ha (=40 μg/cavity)) worked out at 100%. The pest or weed control at 500 g/ha in [1] worked out at 100%. For the same molecule, the “efficacy (aphids killed)” value in [8] turned out to be 90%. In assay [10], the “efficacy (shield bugs killed)” value is reported as 100%. Besides, the pest or weed control at 100 g/ha in assay [2] is 100%.
